Columns and labels:
PC-3 cells [1] = type: cell-based, human; conditions: MTT 24 h; NaCl salt at 160 μg/mL; free phospholipid
Experimental: Cells were seeded into 96-well plates at the density of 1×10^4 cells per well and incubated overnight. […] MTT assays (3-(4,5-dimethylthiazol-2-yl)-2,5-diphenyl tetrazolium bromide, Sigma) were performed following the manufacture's protocol. The absorbance at 570 nm was measured by a microplate reader (Synergy Mx, BioTeK). All measurements were performed in sextuplicate.

B16F10 cells = experiment: CRT presentation, ATP and HMGB-1 release; type: cell-based, murine; conditions: control
Experimental: (§1) CRT expression on cell surface in flow cytometry assessment. T24, UMUC2, UPPL-1541, BBN963, B16F10, and SCC VII cells are seeded into the 6 wells plate at 1×10^6 per well. After overnight incubation, the cells were treated with NaCl particles ([…]) (160 μg/mL) for 2 h. PBS treated cells were used as a control. All the cells were collected by cell […], and incubated with an Alexa Fluor® 647-conjugated anti-CRT antibody (ab196159, 1/500. Abcam) for 30 min at 4° C. The cells were incubated in 500 μL PBS containing 50 μg/mL propidium iodide before washing and assessment on a flow cytometer. The data were expressed in histogram compared to the PBS treated control cells. Cells were seeded into 96-well plates at the density of 1×10^4 cells per well and incubated overnight. Then the cells were treated with […] dispersed in PBS at a dose range of 13.2-320 μg/mL for 1, 2, 4 h and 24 h. Cell supernatant was collected after 1-4 h incubation and tested in ATP 1step Luminescence Assay System, 100 mL ATP Assay Kit (PerkinElmer, US) following the manufacture's protocol. […] The luminescence was measured by a microplate reader (Synergy Mx, BioTeK). All measurements were performed in sextuplicate. Cell supernatant was collected after 24 h incubation and tested in an ELISA kit (IBL International GmbH), according to the manufacturer's instructions.

SCC VII cells = experiment: CRT presentation, ATP and HMGB-1 release; type: cell-based, murine; conditions: control
Experimental: as §1

PC-3 cells [2] = experiment: Necrosis inhibition study (LDH release); type: cell-based, human; conditions: PC-3 cells pre-incubated with inhibitor 1 h, then PSCNPs
Experimental: PC-3 cells were plated overnight at a density of 1×10^4 cells per well in a 96-well plate. These cells were pre-treated with necrosis inhibitor glycine (5 mM) or capsase-1 inhibitor Ac-YVAD-cmk (30 μg/mL) for 1 h, and then incubated with […] (160 or 320 μg/mL) for 6 h. Cell without glycine or Ac-YVAD-cmk treatment were studied as controls. Supernatants were collected and the LDH contents were analyzed by LDH Assay Kit-WST (CT01-05, Dojindo, Japan). The results were normalized to PBS treated control cells.

[3] = type: physicochemical; conditions: pH 5.5
Experimental: were dispersed in 100 μl ammonium acetate buffers (pH=5.5 or pH=7) and added into a Slide-A-LyzerTM MINI Dialysis Device (MWCO=2K, Cat #69550, Thermofisher, US). Place the unite into a 5 mL Eppendorf tube containing 4.5 mL ammonium acetate buffer. Keep the tube on the shaker (20 rpm) at room temperature. […] All measurements were performed following the manufacture's protocol and repeated in sextuplicate.

PC-3 tumor xenografts = experiment: In vivo therapy study, PC-3 tumor model; conditions: mouse
Experimental: Animal studied were performed according to a protocol approved by the Institutional Animal Care and Use Committee (IACUC) of the University of Georgia. The animals were maintained under pathogen-free conditions. PC-3 tumor model was generated by subcutaneously injecting 2×10^6 cells in 50 μL PBS into the right flank of 5-6 week old male athymic nude mice (Charles River). U-87 MG tumor model was generated in female athymic nude mice (Charles River) following the same method as PC-3 model. B16F10 tumor model was generated by subcutaneously injecting 2×10^5 cells in 50 μL PBS into the right flank of 5-6 week old female C57BU6 mice (Charles River). SCC VII tumor model was generated by subcutaneously injecting […] in 50 μL PBS into the right flank of 5-6 week old female C3H/HeN mice (Charles River). UPPL-1541 tumor model was generated by subcutaneously injecting 1×10^6 cells in 50 μL PBS into the right flank of 5-6 week old female C57BL6 mice (Charles River).
For therapy studies, PC-3 tumor bearing mice were randomly divided into 2 groups (n=5 for each group). When the average tumor volume was about 100 mm^3, PSCNPs (9 mg/mL, 50 μL) were intratumorally injected on day 0, 2 and 4. For control, saline at the same volume was injected. […] The tumor was measured in two dimensions with a caliper, and the tumor volume was estimated as (length)×(width) 2/2. […]

| Compound | toxicity to PC-3 cells (PC-3 cells [1]) | reduction of PSCNP-induced LDH release (PC-3 cells [2]) [%] | also measured |
| --- | --- | --- | --- |
| 1,2-distearoyl-sn-glycero-3-phosphoethanolamine-N-[amino(polyethylene glycol)-2000] (ammonium salt) [free phospholipid] | no toxicity |  |  |
| [Cl-].[Na+] [NaCl salt, NaCl] | no toxicity |  | release of ICD biomarkers (ATP and HMGB-1) (B16F10 cells): negligible impact; release of ICD biomarkers (ATP and HMGB-1) (SCC VII cells): negligible impact |
| NCC(=O)O [glycine] |  | 72.9 |  |
| Ac-YVAD-cmk |  | 60.9 |  |
| Phospholipid-coated Sodium Chloride Nanoparticles [PSCNPs] |  |  | effect of lowering pH to 5.5 on nanoparticle degradation [3]: did not accelerate nanoparticle degradation; toxicity in major organs (PC-3 tumor xenografts): no sign of toxicity |

Reference: patent US20220096539A1, “SALT NANOPARTICLES AND COMPOSITIONS AND METHODS OF USE THEREOF” (priority 2019, published 2022)
